Reference: PMC12040169 (PLOS Biology, 2025)

Experiment: in vitro
Details: human, hela cells, % viability

| Compound | viability at 28.5 h, 10 µM |
| --- | --- |
| O=C(c1cc2c(s1)CCC2)N1CCc2c(nc[nH]c2=O)C1 [CBK283703] | 101% |
| O=C(Cc1ccccc1F)NCCn1nc(-c2ccco2)ccc1=O [CBK283705] | 96.9% |
| O=C(Cc1ccc(F)cc1)NCCn1nc(-c2ccco2)ccc1=O [CBK283706] | 86.4% |
| O=C(Cc1cccc(F)c1)NCCn1nc(-c2ccco2)ccc1=O [CBK283708] | 86.3% |
| O=C(CN1Cc2ccccc2C1)N1CCCC1c1nc2ccccc2[nH]1 (stereo not drawn) [CBK283710] | 87.9% |
| O=C(CCc1ccco1)N1CCCCC1c1nc2ccccc2[nH]1 (stereo not drawn) [CBK283711] | 99.9% |
| CN(C)c1cccc(C(=O)N2CC[C@@H](c3ccccc3)[C@H](O)C2)c1 [CBK283713] | 91.6% |
| Cc1ccc2c(c1)C(=O)CC1(CCN(C(=O)C3CCCC3)CC1)O2 [CBK283718] | 85% |
| COC(=O)[C@H]1CN(C(=O)c2cn(C)nc2C)C[C@@H]1c1ccc(F)cc1 [CBK283720] | 96.6% |
| O=C(Cn1c2ccccc2c2ccccc21)N1CCn2cnnc2C1 [CBK283724] | 88.2% |
| COC(=O)[C@@H]1CN(C(=O)c2cccs2)C[C@H]1c1ccc(OC)cc1 [CBK283725] | 87.1% |
| O=c1oc(-c2ccoc2)nn1Cc1ccccc1F [CBK283726] | 98.5% |
| COC(=O)[C@H]1CN(C(=O)c2ccccn2)C[C@@H]1c1ccc(F)cc1 [CBK283727] | 101% |
| Cc1nn2c(O)c3c(nc2c1-c1cccs1)CCC3 [CBK283729] | 85.7% |
| COc1ccc(C2(NC(=O)c3cnn(C)c3C)CCCCC2)cc1 [CBK283731] | 84.8% |
| COC(=O)[C@H]1CN(C(=O)c2ccco2)C[C@@H]1c1ccc(F)cc1 [CBK283733] | 85.8% |
| O=C(O)[C@H]1CN(C(=O)c2cccs2)C[C@@H]1c1ccc(F)cc1 [CBK283734] | 98.1% |
| O=C(O)[C@H]1CN(C(=O)c2ccco2)C[C@@H]1c1ccc(F)cc1 [CBK283735] | 105% |

| Compound | viability at 28.5 h, 10 µM |
| --- | --- |
| CCn1c(C(CC(C)C)NC(=O)C2CC2)nc2cccnc21 (stereo not drawn) [CBK283736] | 103% |
| O=C(c1ccc(=O)[nH]n1)N1C2CCC1CC(c1ccc(F)cc1)C2 (stereo not drawn) [CBK283737] | 94.4% |
| Cc1noc(C)c1C(=O)N1C2CCC1CC(c1ccc(F)cc1)C2 (stereo not drawn) [CBK283738] | 102% |
| Cc1nonc1CC(=O)N1C2CCC1CC(c1ccc(F)cc1)C2 (stereo not drawn) [CBK283739] | 89.1% |
| O=C(Cc1ccsc1)N1CCCC1c1nc2ccccc2[nH]1 (stereo not drawn) [CBK283740] | 87.7% |
| Cc1oc(C2CC2)cc1C(=O)N1CCCC1c1nc2ccccc2[nH]1 (stereo not drawn) [CBK283741] | 88.1% |
| O=C(NCCn1nc(-c2ccco2)ccc1=O)C1CCCCC1 [CBK283743] | 105% |
| CCn1c(/C=C/C2=CCN(C)CC2)nc2ccccc21 [CBK283745] | 91.8% |
| CN(C)C(=O)Cn1nc(C(c2ccccc2)c2ccccc2)oc1=O [CBK283747] | 92.6% |
| CCc1nn(CC(=O)N2CCCC2)c(=O)c2cc3occc3n12 [CBK283748] | 93.3% |
| CCn1cc(C(=O)NC2(c3cccc(OC)c3)CCCC2)cn1 [CBK283750] | 101% |
| COc1ccc([C@@H]2CCN(C(=O)Cc3ccccc3F)C[C@H]2O)cc1 [CBK283756] | 100% |
| CN(C)C(=O)Cn1nc(-c2cccc(-n3cccc3)c2)oc1=O [CBK283759] | 103% |
| CCOC(=O)c1[nH]c(C)c(/C=C/C2=CCN(C)CC2)c1C [CBK283761] | 99.3% |
| O=C(c1cccnc1)N1C2CCC1CC(c1ccc(F)cc1)C2 (stereo not drawn) [CBK283762] | 98.3% |
| O=C(c1ccncc1)N1C2CCC1CC(c1ccc(F)cc1)C2 (stereo not drawn) [CBK283763] | 94.3% |
| COc1ccc2cc(C)c3n[nH]c(=O)n3c2c1 [CBK283765] | 89% |
| COc1ccc2c(c1)cc(C)c1n[nH]c(=O)n12 [CBK283766] | 76.7% |
